{"source": "patent US6534041B1", "about": "“Acid-labile and enzymatically divisible dye compounds for diagnosis with near infrared light and for therapy” (Institute for Diagnostic Research GmbH of the Free …, priority 1997, dated 2003)", "key": {"VIS/NIR absorption": {"experiment": "VIS/NIR absorption", "assay_type": "physicochemical", "details": "H2O"}, "[1]": {"details": "in DMSO; according to Benson and Kues 1977; cited from earlier work"}}, "data": [{"smiles": "CC(=O)c1ccc2c(c1)C(C)(C)C(C=CC=CC=CC=C1N(CCCCS(=O)(=O)[O-])c3ccccc3C1(C)C)=[N+]2CCCCS(=O)(=O)[O-].[Na+]", "note": "[compound 1, 5-(1-oxoethyl)-1,1′-(4-sulfobutyl)-indotricarbocyanine-sodium salt]", "values": [{"measurement": "Absorption λmax", "setting": "VIS/NIR absorption", "value": 748, "unit": "nm"}, {"measurement": "Absorption coefficient ξ at λmax", "setting": "VIS/NIR absorption; 748 nm", "value": "14,800 1 mol^−1 cm^−1"}]}, {"smiles": "CC1(C)C(/C=C/C=C/C=C/C=C2\\N(CCCCS(=O)(=O)O)c3ccc4ccccc4c3C2(C)C)=[N+](CCCCS(=O)(=O)[O-])c2ccc3ccccc3c21", "note": "[indocyanine green]", "values": [{"measurement": "Fluorescence quantum yield Q (standard)", "setting": "[1]", "value": 13, "unit": "%"}]}]}
